Measured values from US10927096B2, “Ester substituted ion channel blockers and methods for use” (Nocion Therapeutics, Inc., priority 2019, dated 2021).

Legend:
NaV1.7 = target: T1, NaV1.7 (Homo sapiens, UniProt Q15858); assay: Automated patch clamp (Qube 384), internal block of NaV1.7 in HEK293 cells; format: cell-based; conditions: compound in internal solution, read-out: NaV1.7 Intracellular Inhibition
T1 construct: expressed in transfected cells; host or cells: HEK293, tetracycline-inducible
Experimental: NaV1.7 was expressed in HEK293 cells upon induction with tetracycline. Cells were cultured in DMEM containing 10% dialyzed Fetal Bovine Serum (VWR, Radnor, Pa.), 1% Glutamax (VWR, Radnor, Pa.), 1% Penicillin-Streptomycin (VWR, Radnor, Pa.), 100 mg/L Hygromycin (Thermo Fisher Scientific, Waltham, Mass. and 5 mg/L Blasticidin (Alfa Aesar, Haverhill, Mass.). Cells were grown and maintained at 37° C. in a humidified environment containing 10% CO2 in air. Cells were detached from the culture flask for passage and harvested using 0.05% Trypsin-EDTA (Thermo Fisher Scientific, Waltham, Mass.). To induce NaV1.7, cells were induced with tetracycline (0.1-1 μg/mL, IBI Scientific, Peosta, Iowa) the day before recording.
Before experiments, cells were washed with DPBS (VWR, Radnor, Pa.), digested with Detachin (VWR Radnor, Pa.) and then triturated 10 times in CHO Serum-Free Media (VWR Radnor, Pa.) to resuspend the cells and to break apart cell aggregates. Cells were counted and the final concentration was set at 2-5 million cells per mL.
The intracellular solution contained the following: 140 mM CsF, 1 mM/5 mM EGTA/CsOH, 10 mM HEPES, 10 mM NaCl, adjusted to pH 7.3 with CsOH, and osmolality to 320 with sucrose. The external solution contained the following: 145 mM NaCl, 4 mM KCl, 1 mM MgCl2, 2 mM CaCl2, 10 mM HEPES, 10 mM Glucose, adjusted to pH 7.4 with CsOH and osmolality to 305 with sucrose. All chemicals are from Sigma-Aldrich, St. Louis, Mo. In order to test the degree of internal block by test compounds, the compounds were dissolved in internal solution at the indicated test concentration. […] In order to test the degree of external block by test compounds the compounds were dissolved in external solution at the indicated test concentration.
Automated Patch Clamps were performed on Qube 384 (Sophion Bioscience, Woburn Mass.) with multihole Qchips at a temperature setting of 22 degrees. The whole cells configuration was formed with default Qube seal and break-in parameter. The membrane potential was held at −100 mV before the voltage protocol began. Two voltage protocols were followed.
Step 1: Cells were held at −100 mV with a depolarized pulse to −20 mV for 10 ms, the interval was set at 5 s. Currents were corrected by default leak subtraction from every pulse. The duration was set at 5 mins.
Step 2: Cells were held at −100 mV with a depolarized pulse to −20 mV for 10 ms. The frequency was 5 Hz. Currents were corrected by leak subtraction calculated before step 2. The duration was set at 4 mins.
After Step 2, the Qchip was removed from the recording chamber. The internal solution was changed with solutions containing test compounds. Qchips were held at −100 mV without pulsing after being replaced in the recording chamber. The total solution switching time was 8 minutes. After the internal solution exchange, Cells were recorded and step 2 for repeated for 10 minutes.
Data analysis was performed by Sophion Analyzer. Cells were filtered with minimum 50 MOhm seal resistance and minimum 5 nA starting current. The rundown of the currents was corrected with control cells (Non-Drug). The remaining was calculated by averaging last 3 points in the end of experiments. The base line was calculated as the average of last 3 points of Step 2. IC50 curves were plotted with DR-plots/Hill function (a dose-response plot with a Hill fit).
Representative examples of the invention were tested for intracellular inhibition of NaV 1.7 in the automated patch clamp assay. Activity Range is reported as IC50: “++++” (<1 μM), “+++” (1-3 μM), “++” (3-10 μM) or “+” (10-30 μM).

[1] = PAMPA membrane permeability assay; format: physicochemical; conditions: pH 7.4 buffer, GIT lipid, 4 hours incubation
Experimental: The PAMPA assay (pION, Inc., Woburn Mass.) was used to determine the ability of compounds of the invention to cross an artificial lipid membrane by passive diffusion. Test compounds were dissolved in DMSO (10 mM) and diluted 200-fold in buffer (pION Inc., pH 7.4) to provide 50 uM stock solutions. Buffer (150 μL) was added to a UV blank plate and stock solutions (150 μL) were transferred to a UV reference plate. The blank and reference spectrum were read using a spectrophotometer. Stock solutions (200 μL) were added to the donor plate of the PAMPA sandwich plate and an accept plate painted with GIT lipid (pION Inc, 5 μL) was placed on top. Buffer (200 μL) was added to the acceptor plate and the PAMPA sandwich plate was incubated for 4 hours. Aliquots (150 μL) from the acceptor plate were added to a UV plate and read as acceptor spectrum. Aliquots (150 μL) of the donor solutions were added to a UV analysis plate and read as donor spectrum. The permeability coefficient of test compounds was calculated using PAMPA Explorer™ software (version 3.5.0.4) based on the AUC of the reference plate, the donor plate, and the acceptor plate.
The PAMPA permeability results (10^−6 cm/s) of representative compounds are reported as “+” (<0.1 10^−6 cm/s), “++” (0.1-2.0 10^−6 cm/s), “+++” (2.0-10.010^−6 cm/s) or “++++” (>10.0 10^−6 cm/s).

T1 sequence (Q15858 whole entry): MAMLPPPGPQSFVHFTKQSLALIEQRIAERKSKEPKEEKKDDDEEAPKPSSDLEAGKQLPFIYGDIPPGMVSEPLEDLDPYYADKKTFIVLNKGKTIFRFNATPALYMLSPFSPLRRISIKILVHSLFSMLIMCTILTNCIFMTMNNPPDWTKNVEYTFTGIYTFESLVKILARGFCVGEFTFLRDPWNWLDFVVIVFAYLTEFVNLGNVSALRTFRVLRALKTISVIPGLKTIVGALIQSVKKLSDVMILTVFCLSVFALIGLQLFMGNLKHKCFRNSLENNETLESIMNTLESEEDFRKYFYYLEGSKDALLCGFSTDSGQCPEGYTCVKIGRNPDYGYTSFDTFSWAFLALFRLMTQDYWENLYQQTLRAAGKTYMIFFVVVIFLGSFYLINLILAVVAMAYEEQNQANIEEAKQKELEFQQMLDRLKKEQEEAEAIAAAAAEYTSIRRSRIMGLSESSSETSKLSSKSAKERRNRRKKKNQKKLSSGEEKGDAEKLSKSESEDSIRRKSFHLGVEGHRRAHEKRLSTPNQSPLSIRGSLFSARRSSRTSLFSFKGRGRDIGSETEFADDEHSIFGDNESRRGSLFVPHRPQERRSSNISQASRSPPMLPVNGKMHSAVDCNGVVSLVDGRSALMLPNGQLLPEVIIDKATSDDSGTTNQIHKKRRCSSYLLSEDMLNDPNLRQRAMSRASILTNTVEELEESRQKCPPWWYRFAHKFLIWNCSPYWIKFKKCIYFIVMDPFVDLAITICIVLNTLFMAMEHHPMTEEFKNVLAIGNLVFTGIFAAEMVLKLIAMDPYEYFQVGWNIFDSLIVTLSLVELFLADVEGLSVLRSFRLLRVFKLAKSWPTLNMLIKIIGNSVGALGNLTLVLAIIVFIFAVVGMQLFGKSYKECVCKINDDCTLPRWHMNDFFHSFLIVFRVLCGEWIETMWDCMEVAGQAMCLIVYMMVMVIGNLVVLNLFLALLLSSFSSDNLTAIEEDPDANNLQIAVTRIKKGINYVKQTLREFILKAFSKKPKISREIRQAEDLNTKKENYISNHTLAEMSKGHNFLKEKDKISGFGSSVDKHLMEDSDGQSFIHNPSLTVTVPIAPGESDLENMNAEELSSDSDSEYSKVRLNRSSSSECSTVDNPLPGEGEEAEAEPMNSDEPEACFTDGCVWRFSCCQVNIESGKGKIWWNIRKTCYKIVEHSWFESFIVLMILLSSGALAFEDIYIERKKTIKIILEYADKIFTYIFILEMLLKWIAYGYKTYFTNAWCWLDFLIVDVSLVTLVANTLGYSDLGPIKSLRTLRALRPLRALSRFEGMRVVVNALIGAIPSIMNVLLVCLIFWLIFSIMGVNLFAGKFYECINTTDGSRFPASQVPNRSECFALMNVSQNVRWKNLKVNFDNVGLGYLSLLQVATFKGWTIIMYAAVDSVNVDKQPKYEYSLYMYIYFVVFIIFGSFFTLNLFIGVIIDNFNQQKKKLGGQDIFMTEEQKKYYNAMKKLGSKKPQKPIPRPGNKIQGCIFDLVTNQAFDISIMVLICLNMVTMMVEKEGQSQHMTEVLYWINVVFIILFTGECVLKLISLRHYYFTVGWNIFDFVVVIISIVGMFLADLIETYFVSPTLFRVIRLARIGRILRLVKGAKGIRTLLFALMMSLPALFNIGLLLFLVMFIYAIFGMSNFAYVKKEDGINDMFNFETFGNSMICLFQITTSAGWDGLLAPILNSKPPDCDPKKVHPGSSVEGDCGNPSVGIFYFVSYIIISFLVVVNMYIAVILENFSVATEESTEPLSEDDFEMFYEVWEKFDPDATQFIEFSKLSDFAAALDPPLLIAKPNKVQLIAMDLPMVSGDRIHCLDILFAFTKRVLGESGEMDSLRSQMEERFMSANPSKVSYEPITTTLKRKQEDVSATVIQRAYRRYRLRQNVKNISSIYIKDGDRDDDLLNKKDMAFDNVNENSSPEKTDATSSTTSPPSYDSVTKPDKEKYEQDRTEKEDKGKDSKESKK

| SMILES | IC50 (NaV1.7) | PAMPA (10^−6 cm/s) [1] |
| --- | --- | --- |
| CCCCOC(=O)C1CCC[N+](CC(=O)Nc2c(C)cccc2C(=O)OC)(Cc2ccccc2)C1.[Br-] (mixture of isomers) [Compound 14] | 1 to 3 µM | + (<0.1 10^−6 cm/s) |
| CCCCOC(=O)C1CCC[N+](CC)(CC(=O)Nc2c(C)cccc2C(=O)OC)C1.[I-] (mixture of isomers) [Compound 15] | 1 to 3 µM | + (<0.1 10^−6 cm/s) |
| CCOC(=O)C1CCC[N+](CC(=O)Nc2c(C)cccc2C(=O)OC)(Cc2ccccc2)C1 (mixture of isomers) [Compound 16] | < 1 µM | + (<0.1 10^−6 cm/s) |
| CC[N+]1(CC(=O)Nc2c(C)cccc2C(=O)OC)CCCC(C(=O)OC2CCCCC2)C1 (mixture of isomers) [Compound 27] | 1 to 3 µM | + (<0.1 10^−6 cm/s) |
| CCCNC(=O)C1CCC[N+](CC(=O)Nc2c(C)cccc2C(=O)OC)(Cc2ccccc2)C1 (mixture of isomers) [Compound 28] | < 1 µM | +++ (2.0-10.010^−6 cm/s) |
| CNC(=O)C1CCC[N+](CC(=O)Nc2c(C)cccc2C(=O)OC)(Cc2ccccc2)C1 (mixture of isomers) [Compound 31] | < 1 µM | + (<0.1 10^−6 cm/s) |
| COC(=O)c1cccc(C)c1NC(=O)C[N+]1(Cc2ccccc2)CCCC(C(=O)N(C)C)C1 (mixture of isomers) [Compound 40] | < 1 µM | + (<0.1 10^−6 cm/s) |
| COC(=O)c1cccc(C)c1NC(=O)C[N+]1(Cc2ccccc2)CCCC(C(=O)N2CCCC2)C1 (mixture of isomers) [Compound 43] | 1 to 3 µM | + (<0.1 10^−6 cm/s) |
| CC[N+]1(CC(=O)Nc2c(C)cccc2C(=O)OC)CCCC(C(=O)N2CCCC2)C1 (mixture of isomers) [Compound 54] | 1 to 3 µM | + (<0.1 10^−6 cm/s) |
| CNC(=O)C[N+]1(CC(=O)Nc2c(C)cccc2C(=O)OC)CCCC(c2ccccc2)C1.[Br-] (mixture of isomers) [Compound 59] | < 1 µM | + (<0.1 10^−6 cm/s) |
| COC(=O)c1cccc(C)c1NC(=O)C[N+]1(CC(N)=O)CCCC(c2ccccc2)C1 (mixture of isomers) [Compound 61] | < 1 µM | + (<0.1 10^−6 cm/s) |
| CCN(CC)C(=O)C[N+]1(CC(=O)Nc2c(C)cccc2C(=O)OC)CCCC(c2ccccc2)C1 (mixture of isomers) [Compound 62] | 1 to 3 µM | + (<0.1 10^−6 cm/s) |
| COC(=O)C[N+]1(CC(=O)Nc2c(C)cccc2C(=O)OC)CCCC(c2ccccc2)C1 (mixture of isomers) [Compound 64] | < 1 µM | + (<0.1 10^−6 cm/s) |
| CC[N+]1(CC(=O)Nc2c(C)cccc2C(=O)OC)CCCC(c2ccccc2)C1 (mixture of isomers) [Compound 65] | < 1 µM | + (<0.1 10^−6 cm/s) |
| COC(=O)c1cccc(C)c1NC(=O)C[N+]1(Cc2ccccc2)CCCCCC1 [Compound 1] | < 1 µM | + (<0.1 10^−6 cm/s) |
| CCOC(=O)c1cccc(C)c1NC(=O)C[N+]1(Cc2ccccc2)CCCCCC1 [Compound 2] | < 1 µM | + (<0.1 10^−6 cm/s) |
| COC(=O)c1cccc(C)c1NC(=O)C[N+]1(Cc2ccccc2)CCCCC1.[Br-] [Compound 3] | 1 to 3 µM | + (<0.1 10^−6 cm/s) |
| CCOC(=O)c1cccc(C)c1NC(=O)C[N+]1(Cc2ccccc2)CCCCC1.[Br-] [Compound 4] | < 1 µM | + (<0.1 10^−6 cm/s) |

| SMILES | IC50 (NaV1.7) | PAMPA (10^−6 cm/s) [1] |
| --- | --- | --- |
| COC(=O)c1cccc(C)c1NC(=O)C[N+]1(Cc2ccccc2)CCCC1 [Compound 5] | 1 to 3 µM | +++ (2.0-10.010^−6 cm/s) |
| CCCOC(=O)c1cccc(C)c1NC(=O)C[N+]1(Cc2ccccc2)CCCCCC1.[Br-] [Compound 6] | 1 to 3 µM | + (<0.1 10^−6 cm/s) |
| Cc1cccc(C(=O)OC(C)C)c1NC(=O)C[N+]1(Cc2ccccc2)CCCCCC1.[Br-] [Compound 7] | < 1 µM | + (<0.1 10^−6 cm/s) |
| CCOC(=O)c1cccc(C)c1NC(=O)C[N+]1(Cc2ccccc2)CCCC1.[Br-] [Compound 9] | < 1 µM | + (<0.1 10^−6 cm/s) |
| CC[N+]1(CC(=O)Nc2c(C)cccc2C(=O)OC)CCCC(C(=O)OCC(C)C)C1.[I-] (stereo not shown) [Compound 23] | < 1 µM | + (<0.1 10^−6 cm/s) |
| CCCOC(=O)C1CCC[N+](CC)(CC(=O)Nc2c(C)cccc2C(=O)OC)C1.[I-] (stereo not shown) [Compound 26] | 1 to 3 µM | + (<0.1 10^−6 cm/s) |
| COC(=O)c1cccc(C)c1NC(=O)C[N+]1(Cc2ccccc2)CCCC(C(N)=O)C1.[Br-] (stereo not shown) [Compound 30] | < 1 µM | + (<0.1 10^−6 cm/s) |
| COC(=O)c1cccc(C)c1NC(=O)C[N+]1(Cc2ccccc2)CCCC(C(=O)NC(C)C)C1.[Br-] (stereo not shown) [Compound 32] | < 1 µM | + (<0.1 10^−6 cm/s) |
| CCNC(=O)C1CCC[N+](CC(=O)Nc2c(C)cccc2C(=O)OC)(Cc2ccccc2)C1.O=C([O-])C(F)(F)F (stereo not shown) [Compound 33] | < 1 µM | ++ (0.1-2.0 10^−6 cm/s) |
| COC(=O)c1cccc(C)c1NC(=O)C[N+]1(Cc2ccccc2)CCCC(C(=O)N2CCCCCC2)C1.[Br-] (stereo not shown) [Compound 34] | 1 to 3 µM | + (<0.1 10^−6 cm/s) |
| COC(=O)c1cccc(C)c1NC(=O)C[N+]1(Cc2ccccc2)CCCC(C(=O)NCC(C)C)C1.[Br-] (stereo not shown) [Compound 36] | 1 to 3 µM | +++ (2.0-10.010^−6 cm/s) |
| COC(=O)c1cccc(C)c1NC(=O)C[N+]1(Cc2ccccc2)CCCC(C(=O)NC2CCCC2)C1.[Br-] (stereo not shown) [Compound 41] | 1 to 3 µM | + (<0.1 10^−6 cm/s) |
| CC[N+]1(CC(=O)Nc2c(C)cccc2C(=O)OC)CCCC(C(=O)N2CCCCC2)C1.[I-] (stereo not shown) [Compound 45] | < 1 µM | + (<0.1 10^−6 cm/s) |
| CC[N+]1(CC(=O)Nc2c(C)cccc2C(=O)OC)CCCC(C(=O)NC)C1.[I-] (stereo not shown) [Compound 46] | 3 to 10 µM | + (<0.1 10^−6 cm/s) |
| CC[N+]1(CC(=O)Nc2c(C)cccc2C(=O)OC)CCCC(C(N)=O)C1.[I-] (stereo not shown) [Compound 55] | 3 to 10 µM | + (<0.1 10^−6 cm/s) |
| CC[N+]1(CC(=O)Nc2c(C)cccc2C(=O)OC)CCCC(C(=O)NC2CCCCC2)C1.[I-] (stereo not shown) [Compound 56] | 1 to 3 µM | + (<0.1 10^−6 cm/s) |
| CCC(C(=O)Nc1c(C)cccc1C(=O)OC)[N+]1(Cc2ccccc2)CCCCC1 (stereo not shown) [Compound 57] | 1 to 3 µM | + (<0.1 10^−6 cm/s) |
